Literature values, collected in patent US6337095B1, “Process for the isolation of compound scopoletin useful as nitric oxide synthesis inhibitor” (Council of Scientific and Industrial Research, priority 2000, dated 2002).

Tested on: murine macrophages
Conditions: reported in literature (Planta Medica 65:400-403, 1999)

COc1cc2ccc(=O)oc2cc1O [scopoletin, 7-hydroxy-6-methoxy coumarin]
inhibition of nitric oxide (NO) synthesis: showed inhibition
